PubChem BioAssay (NCI)
Where “and” joins values, the source holds several entries; their conditions need not be identical. Equal entries are not always repeated.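 Where inhibition never reached the appropriate level, the endpoint shown equals the highest concentration tested. Otherwise, values were interpolated linearly from a five-concentration, 48-hour dose response in 96-well plates. Abbreviation: GI50, concentration required for 50% inhibition of growth. The concentration for full growth arrest is given as TGI.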

Legend:
Experiment in all cases: growth of human tumour cells (NCI), 48 h
BT-549 breast = tested on: BT-549 breast
DLD-1 colon = tested on: DLD-1 colon
M19-MEL melanoma = tested on: M19-MEL melanoma
DMS 114 small cell lung = tested on: DMS 114 small cell lung
RXF-631 renal = tested on: RXF-631 renal
MDA-N = tested on: MDA-N

Compound	GI50 (BT-549 breast)	TGI (BT-549 breast)	TGI (DLD-1 colon) [µM]	TGI (M19-MEL melanoma) [µM]	TGI (DMS 114 small cell lung) [µM]	other results
O=c1[nH]nc(-c2ccccc2)c2c(-c3ccccc3)onc12	0.506 µM	> 47.8 µM	–	–	–	–
O=[N+]([O-])c1cc2c(ccc3occc32)o1	1.87 µM	4.4 µM	–	–	–	–
COC(=O)C1=C(c2ccc(Cl)cc2)C(O)N=C(NN)N1 (configuration not stated)	–	–	> 100	> 100	> 100	TGI (RXF-631 renal): > 100 µM
CC1=C(C(=O)Nc2ccccc2C)C(c2ccccc2C)C(C(=O)Nc2ccccc2C)=C(C)N1	–	–	33.4	66.7	> 100	TGI (RXF-631 renal): > 100 µM
CC(=O)n1c(-c2ccc(Cl)c(Cl)c2)cn(-c2ccc(Cl)cc2)c1=O	17 µM	36.6 µM	–	–	–	–
CC(=O)O/N=C/c1cc2c(cc1Br)OCO2	–	–	> 349	> 349	> 349	–
CC1=NN(C(=O)c2nn(-c3ccc(Cl)cc3)cc2O)C(=O)C1	0.766 µM	> 100 µM	–	–	–	–
CN(C)c1ncnc2c1ccn2C1OC(CO)C(O)C1O (configuration not stated)	3.98 µM	> 100 µM	–	–	–	–
COc1cc2c(cc1OCCCCCn1c3ccccc3c3ccccc31)N=C[C@@H]1CCCN1C2=O	2.03 µM	4.31 µM	–	–	–	–
O=C1NN=CN2C(=O)CCC12 (configuration not stated)	–	–	> 100	> 100	> 100	TGI (RXF-631 renal): > 100 µM
CC(C)=CCc1cc(C2COc3cc4c(c(O)c3C2=O)C=CC(C)(C)O4)c(O)cc1O (configuration not stated)	–	33.3 µM	–	–	–	TGI (MDA-N): 27.5 µM
NC(=O)N/N=C(\CCC(=O)N(Cc1ccccc1)Cc1ccccc1)CC(=O)c1ccc(F)cc1	–	–	> 100	> 100	> 100	TGI (RXF-631 renal): > 100 µM
N#CC(C(=O)CCC(=O)Nc1ccc(Cl)c(Cl)c1)c1ccc(Cl)cc1 (configuration not stated)	–	–	> 100	> 100	> 100	TGI (RXF-631 renal): > 100 µM
O=C(Cn1c2ccccc2c2ccncc21)N/N=C\c1ccc2ccccc2c1	15.6 µM	36.5 µM	–	–	–	–
CCCCCCCCCCCCCCCCCc1nnc(N)o1	–	–	> 100	> 100	–	TGI (RXF-631 renal): > 100 µM
COc1ccc2c(c1OC)C(=O)O[C@@H]2[C@H]1c2c(c(Br)c3c(c2OC)OCO3)CCN1C	> 100 µM	> 100 µM	–	–	–	–
CC1CC(=O)c2c(ccc3c2C(=O)c2cccc(O)c2C3=O)C1 (configuration not stated)	–	–	9.56	4.96	25.4	TGI (RXF-631 renal): 29.8 µM
COc1cc2nncc(SCc3ccc(Cl)c(Cl)c3)c2cc1OC	–	> 100 µM	–	> 100	> 100	TGI (MDA-N): > 100 µM; TGI (RXF-631 renal): > 100 µM
O=C(CC(=O)c1ccccc1)C(=O)NC12CC3CC(CC(C3)C1)C2	–	–	> 70	> 100	> 58.4	–
CN(CCCN(C)CCC1CCCCC1)CCC1CCCCC1	2.64 µM	11.1 µM	–	–	–	–
O=C1c2ccn(CCCCN(CCO)CCO)c2C(=O)c2c1c(O)c1ccccc1c2O	20.7 µM	60.9 µM	–	–	–	–
NS(=O)(=O)c1ccc(NC(=O)c2cccc3c(Nc4ccc(S(N)(=O)=O)cc4)c4ccccc4nc23)cc1	–	–	> 100	> 100	> 100	TGI (RXF-631 renal): 11.1 µM
Cc1ccc(-c2c3c(N)c4c(nc3nc3c2c(C)nn3-c2ccccc2)CCC4)cc1	20.7 µM	45.5 µM	–	–	–	–
CCc1c2c(nc3ccc(OCc4ccc(B5OC(C)(C)C(C)(C)O5)cc4)cc13)-c1cc3c(c(=O)n1C2)COC(=O)[C@]3(O)CC	0.0757 µM	> 100 µM	–	–	–	–
CCOC(=O)c1cn(CC)c2cc3c(cc2c1=O)SCS3	–	–	> 100	> 100	> 100	TGI (RXF-631 renal): > 100 µM
Cc1cc(Cl)ccc1Nc1nc(C(F)(F)F)ccc1C(=O)Nc1cccc(C(F)(F)F)c1	3.76 µM	15.7 µM	–	–	–	–
CN(C)C(=S)SCC(N)=O	–	> 100 µM	–	–	–	TGI (MDA-N): > 100 µM

Compound	GI50 (BT-549 breast)	TGI (BT-549 breast)	TGI (DLD-1 colon) [µM]	TGI (M19-MEL melanoma) [µM]	TGI (DMS 114 small cell lung) [µM]	other results
O=C1C=C(OCCCl)C(=O)c2c(O)ccc(O)c21	–	0.477 µM	–	–	–	GI50 (MDA-N): 236 nM; TGI (MDA-N): 0.29 µM and 0.539 µM
O=CN1N=C(c2ccc(Nc3ccnc4cc(Cl)ccc34)cc2)CC1c1ccc(Cl)cc1 (configuration not stated)	4.77 µM	> 100 µM	–	–	–	–
O=C1NC(SCc2ccc(F)cc2)=N/C1=C/c1cccc(OCc2ccc(Cl)cc2)c1	23.4 µM	> 100 µM	–	–	–	–
Nc1cc(-c2ccccc2)n(C(=O)Nc2ccc(Oc3ccccc3)cc2)n1	86.2 µM	> 100 µM	–	–	–	–
Cc1cn(Cc2ccccc2CCl)c(=O)n(Cc2ccccc2CCl)c1=O	1.85 µM	3.52 µM	–	–	–	–
COc1ccc(/C(C#N)=C(/N)SCc2ccccc2Cl)cc1	–	–	32.7	40.6	37.1	–
O=C1NN=C(c2ccc([N+](=O)[O-])cc2)C1n1nc(-c2ccccc2)c2ccccc2c1=O (configuration not stated)	–	–	> 78.7	> 100	–	TGI (RXF-631 renal): > 100 µM
CNc1ncc2cc(Oc3ccc(F)cc3F)c(=O)n(C)c2n1	> 25 µM	> 25 µM	–	–	–	–
c1ccc(/C(=N\Nc2ccc3ccccc3n2)c2ccccn2)cc1	0.116 µM	1.72 µM	–	–	–	–
OC1c2ccccc2C2C(O)c3ccccc3C12 (configuration not stated)	–	–	> 100	> 100	> 100	TGI (RXF-631 renal): > 100 µM
O=C(CC(=O)C1CCOC1=O)C(=O)Nc1ccc(Cl)cc1 (configuration not stated)	–	–	> 100	> 100	> 100	TGI (RXF-631 renal): > 100 µM
c1ccc2c(CN3CCC(C4CCN(Cc5cccc6ccccc56)CC4)CC3)cccc2c1	–	> 100 µM	26.8	20.7	6.76	TGI (MDA-N): 25.2 µM; TGI (RXF-631 renal): 35.5 µM
Cn1c2ccccc2c2[nH]c3ccccc3c(=O)c21	–	> 100 µM	–	–	–	TGI (MDA-N): > 100 µM
O=c1[nH]cnc2c1ncn2CCCCO	–	–	> 100	> 100	> 100	–
Cc1cc(C)nc(NS(=O)(=O)c2ccc(NC(=O)c3cccc4c(N)c5ccccc5nc34)cc2)n1	–	–	> 100	> 100	> 100	–
COC(=O)c1nc(N)nc(C(=O)OC)c1C(=O)c1ccccc1	–	–	> 100	> 100	> 100	TGI (RXF-631 renal): > 100 µM
CC(=O)O[C@H]1CC[C@@]2(C)C(=C/C(=N\[N+](=O)[O-])[C@H]3C4CCC([C@H](C)CCCC(C)C)[C@@]4(C)CCC32)C1 (some centres not stated)	–	–	> 100	> 100	> 100	–
Nc1ccccc1C#C/C=C\C#Cc1ccccc1F	4.06 µM	18.1 µM	–	–	–	–
O=C(NN1C(=O)CSC12CCC(c1ccccc1)CC2)c1[nH]c2ccc(F)cc2c1-c1ccccc1 (configuration not stated)	19.9 µM	34.8 µM	–	–	–	–
CC(C)c1cccc(C(C)C)c1NC(=O)C(=O)C1SC(=S)NC1=O (configuration not stated)	–	–	> 100	> 100	–	TGI (RXF-631 renal): > 100 µM
COc1ccc(C=C2C(=O)NC(=O)NC2=O)cc1OCc1ccccc1	16.8 µg/mL	43.2 µg/mL	–	–	–	GI50 (MDA-N): 14.8 µg/mL; TGI (MDA-N): 32.7 µg/mL
COc1cc2c3cc1Oc1c(OC)c(OC)cc4c1C(Cc1ccc(cc1)Oc1cc(ccc1O)CC3N(C)CC2)N(C)CC4 (configuration not stated)	–	22.8 µM	54.9	24.2	24.8	TGI (MDA-N): 17 µM
O=S(=O)(N/N=C/c1ccc(Cl)cc1Cl)c1ccccc1	–	–	> 100	> 100	89.9	TGI (RXF-631 renal): > 100 µM
NCCSC(C[N+](=O)[O-])c1ccccc1Cl (configuration not stated)	2.03 µM	4.26 µM	–	–	–	–
CN(C)N=Nc1nn(C(=O)Nc2ccc(Cc3ccccc3)cc2)c2ccccc12	25.7 µM	> 100 µM	–	–	–	–
[O-][n+]1c2cc(CN3CCOCC3)c(CN3CCOCC3)cc2[n+]([O-])c2c(O)cccc21	–	–	6.8	8.83	–	TGI (RXF-631 renal): > 55.9 µM
O=C1NC(c2ccccc2)N=C2Oc3ccccc3C=C12 (configuration not stated)	–	> 100 µM	–	–	–	TGI (MDA-N): 1.12 µM

Compound	GI50 (BT-549 breast)	TGI (BT-549 breast)	TGI (DLD-1 colon) [µM]	TGI (M19-MEL melanoma) [µM]	TGI (DMS 114 small cell lung) [µM]	other results
COc1ccc(CN=C(N)N=C(N)N)cc1OC	260 µM	> 1000 µM	–	–	–	–
COc1cc(/C=C\c2ccc(Cl)cc2)cc(OC)c1OC	–	–	> 100	> 100	> 91.8	TGI (RXF-631 renal): > 100 µM
C=C(C)C(=O)O[C@H]1CC2=CC(CC(C)=C[C@H]3OC(=O)C(=C)C13)OC2=O (some centres not stated)	–	38.9 µM	–	–	–	TGI (MDA-N): 89.4 µM
COc1ccc(OC)c(/C=N/N=C2\C(=O)Nc3c(Cl)cc(Cl)cc32)c1	–	72.5 µM	–	–	–	TGI (MDA-N): 40.9 µM
CCOC(=O)C1Oc2ccc([N+](=O)[O-])cc2C1(C)O (configuration not stated)	–	–	> 100	> 100	> 100	–
CCOC(=O)/C=C1\Oc2ccccc2C1(C)O (configuration not stated)	–	–	> 100	> 100	> 100	–
Cc1cccc(N=C2NC(=O)C(CC(=O)Nc3ccccc3Cl)S2)c1 (configuration not stated)	–	–	> 100	> 100	> 100	TGI (RXF-631 renal): > 100 µM
CCc1nc(N)nc(N)c1C#CC(C)c1cc(-c2ccnc(C)c2)c2oc(C)nc2c1 (configuration not stated)	1.03 µM	8.31 µM	–	–	–	–
COc1cc(-c2oc3c(OC)c(O)cc(O)c3c(=O)c2OC)ccc1O	–	59.2 µM	–	–	–	TGI (MDA-N): 59.5 µM
O=C1OC(OC/C(Br)=C(/Br)COC2OC(=O)C(Cl)=C2Cl)C(Cl)=C1Cl (configuration not stated)	–	–	–	–	–	TGI (MDA-N): 21.5 µM
Nc1ccc(C2=Nc3ccccc3SC(c3ccccc3O)C2)cc1 (configuration not stated)	–	–	> 100	> 100	49.4	TGI (RXF-631 renal): > 100 µM
COC(=O)Nc1nc2ccc(S(=O)(=O)c3ccc(NC(=O)Nc4cc(C(F)(F)F)ccc4F)cc3)cc2[nH]1	> 25 µM	> 25 µM	–	–	–	–
COC1OC(C(C)O)C2OC(C)(C)OC12 (configuration not stated)	–	> 100 µM	–	–	–	TGI (MDA-N): > 100 µM
Cc1ccc([N+](=O)[O-])c2c(NCCC[N+](C)(C)[O-])ccnc12	–	–	–	–	–	TGI (MDA-N): > 100 µM
COc1ccc(/C=N\O[Si](C)(C)C(C)(C)C)cc1O[Si](C)(C)C(C)(C)C	–	–	32.9	36.5	35.6	TGI (RXF-631 renal): 37.4 µM
CCCC(CCC)C(=O)OCC1(CO)C/C(=C\c2ccc(C(F)(F)F)cc2)C(=O)O1 (configuration not stated)	7.04 µM	21 µM	–	–	–	–
NNC(=S)N/N=C(/C(=O)Nc1ccc([N+](=O)[O-])cc1)c1nc2ccc([N+](=O)[O-])cc2[nH]c1=O	–	–	> 100	> 100	> 100	–
COC(=O)C1C(/C=C/c2ccoc2)ON2CCC[C@@H]12 (some centres not stated)	–	–	> 100	> 100	> 100	–
COc1ccc2c(c1)C=C1CSCC3=Cc4cc(OC)ccc4OC13O2	0.816 µM	> 100 µM	–	–	–	–
NS(=O)(=O)c1ccc(N2N=C(c3cccs3)CC2c2ccccc2O)cc1 (configuration not stated)	2.05 µM	9.15 µM	–	–	–	–
Cc1cc(Cl)ccc1NC(=O)C(=O)Cc1occc(=O)c1O	–	–	> 100	> 100	> 100	TGI (RXF-631 renal): > 100 µM
O=c1[nH]c2c(c3ccccc13)CCc1ccccc1-2	–	–	–	> 100	> 100	–
CCC(=O)c1c(C(F)(F)F)n([O-])c2ccccc2[n+]1=O	2 µM	6.13 µM	–	–	–	–
Clc1ccc(/C=C/c2nc(Cl)c(-c3ccc(Cl)cc3)c(Cl)n2)cc1	–	> 100 µM	–	–	–	TGI (MDA-N): > 100 µM
COC1C(O)C(C)OC(O[C@@H]2C[C@H]3CC[C@@H]4[C@H](CC[C@]5(C)[C@@H](C6=CC(=O)OC6)CC[C@]45O)[C@@]3(C)[C@H](O)C2)C1O (some centres not stated)	–	0.159 µM	–	–	–	TGI (MDA-N): 0.0838 µM
